From patent publication US8492589B2, “Alkynyl phenyl derivative compounds for treating ophthalmic diseases and disorders” (Acucela Inc., priority 2007, dated 2013)

Molecular target: T1, visual cycle isomerase (Bovine RPE microsome membranes) (Bos taurus, UniProt Q28175)
T1 construct: Bovine Retinal Pigment Epithelium (RPE) microsome membranes were the source of a visual cycle isomerase; from tissue; host or cells: bovine retinal pigment epithelium microsome membranes
T1 sequence (Q28175 2-533 limits assumed): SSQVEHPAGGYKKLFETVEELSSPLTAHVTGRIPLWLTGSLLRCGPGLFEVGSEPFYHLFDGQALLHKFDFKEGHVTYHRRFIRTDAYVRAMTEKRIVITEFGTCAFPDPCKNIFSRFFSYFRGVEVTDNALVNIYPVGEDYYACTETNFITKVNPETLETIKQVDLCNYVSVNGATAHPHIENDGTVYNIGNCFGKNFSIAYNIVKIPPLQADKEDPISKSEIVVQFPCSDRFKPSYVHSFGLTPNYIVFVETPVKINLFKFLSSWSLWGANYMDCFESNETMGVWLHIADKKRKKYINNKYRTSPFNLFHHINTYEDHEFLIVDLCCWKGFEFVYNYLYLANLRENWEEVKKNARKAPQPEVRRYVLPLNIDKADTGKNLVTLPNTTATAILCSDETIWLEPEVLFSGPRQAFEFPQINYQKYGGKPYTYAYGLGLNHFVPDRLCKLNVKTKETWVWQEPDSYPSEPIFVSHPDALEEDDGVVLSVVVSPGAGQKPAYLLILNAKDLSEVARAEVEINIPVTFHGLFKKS
Assay: In vitro isomerase inhibition assay, bovine RPE microsome membranes
Format: biochemical
Settings: bovine RPE microsomes; 11-cis retinol formation
Experimental: The capability of alkynyl phenyl-linked amine derivative compounds to inhibit the activity of a visual cycle isomerase was determined.
Bovine Retinal Pigment Epithelium (RPE) microsome membranes were the source of a visual cycle isomerase.
Crude RPE microsome extracts were thawed in a 37° C. water bath, and then immediately placed on ice. 50 ml crude RPE microsomes were placed into a 50 ml Teflon-glass homogenizer (Fisher Scientific, catalog no. 0841416M) on ice, powered by a hand-held DeWalt drill, and homogenized ten times up and down on ice under maximum speed. This process was repeated until the crude RPE microsome solution was homogenized. The homogenate was then subjected to centrifugation (50.2 Ti rotor (Beckman, Fullerton, Calif.), 13,000 RPM; 15360 Rcf) for 15 minutes at 4° C. The supernatant was collected and subjected to centrifugation at 42,000 RPM (160,000 Rcf; 50.2 Ti rotor) for 1 hour at 4° C. The supernatant was removed, and the pellets were suspended in 12 ml (final volume) cold 10 mM MOPS buffer, pH 7.0. The resuspended RPE membranes in 5 ml aliquots were homogenized in a glass-to-glass homogenizer (Fisher Scientific, catalog no. K885500-0021) to high homogeneity. Protein concentration was quantified using the BCA protein assay according to the manufacturer's protocol (Pierce, Rockford, Ill.). The homogenized RPE preparations were stored at −80° C.
Recombinant human apo cellular retinaldehyde-binding protein (CRALBP) was cloned and expressed according to standard methods in the molecular biology art (see Crabb et al., Protein Science 7:746-57 (1998); Crabb et al., J. Biol. Chem. 263:18688-92 (1988)). Briefly, total RNA was prepared from confluent ARPE19 cells (American Type Culture Collection, Manassas, Va.), cDNA was synthesized using an oligo(dT)12-18 primer, and then DNA encoding CRALBP was amplified by two sequential polymerase chain reactions (see Crabb et al., J. Biol. Chem. 263:18688-92 (1988); Intres, et al., J. Biol. Chem. 269:25411-18 (1994); GenBank Accession No. L34219.1). The PCR product was sub-cloned into pTrcHis2-TOPO TA vector according to the manufacturer's protocol (Invitrogen Inc., Carlsbad, Calif.; catalog no. K4400-01), and then the sequence was confirmed according to standard nucleotide sequencing techniques. Recombinant 6×His-tagged human CRALBP was expressed in One Shot TOP 10 chemically competent E. coli cells (Invitrogen), and the recombinant polypeptide was isolated from E. coli cell lysates by nickel affinity chromatography using nickel (Ni) Sepharose XK16-20 columns for HPLC (Amersham Bioscience, Pittsburgh, Pa.; catalog no. 17-5268-02). The purified 6×His-tagged human CRALBP was dialyzed against 10 mM bis-tris-Propane (BTP) and analyzed by SDS-PAGE. The molecular weight of the recombinant human CRALBP was approximately 39 kDal.
Alkkynyl phenyl-linked amine derivative compounds and control compounds were reconstituted in ethanol to 0.1 M. Ten-fold serial dilutions (10^−2, 10^−3, 10^−4, 10^−5, 10^−6 M) in ethanol of each compound were prepared for analysis in the isomerase assay.
The isomerase assay was performed in 10 mM bis-tris-propane (BTP) buffer, pH 7.5, 0.5% BSA (diluted in BTP buffer), 1 mM sodium pyrophosphate, 20 μM all-trans retinol (in ethanol), and 6 μM apo-CRALBP. The test compounds (2 μl) (final […] dilution of serial dilution stocks) were added to the above reaction mixture to which RPE microsomes were added. The same volume of ethanol was added to the control reaction (absence of test compound). Bovine RPE microsomes (9 μl) (see above) were then added, and the mixtures transferred to 37° C. to initiate the reaction (total volume=150 μl). The reactions were stopped after 30 minutes by adding methanol (300 μl). Heptane was added (300 μl) and mixed into the reaction mixture by pipetting. Retinoid was extracted by agitating the reaction mixtures, followed by centrifugation in a microcentrifuge. […]

IC50 [µM] | SMILES
≤ 10 | NCCCc1cccc(C#Cc2cccs2)c1 [Example 65, 3-(3-(Thiophen-2-ylethynyl)phenyl)propan-1-amine]
≤ 100 | Cc1ccc(C#Cc2cccc(CCCN)c2)cc1 [Example 84, 3-(3-(p-Tolylethynyl)phenyl)propan-1-amine]
≤ 1 | CCCCC#Cc1cccc(CCCN)c1 [Example 44, 3-(3-(Hex-1-ynyl)phenyl)propan-1-amine]
≤ 1 | CC(C)CC#Cc1cccc(OCCN)c1 [Example 73, 2-(3-(4-Methylpent-1-ynyl)phenoxy)ethanamine]
≤ 1 | NCCCc1cccc(C#CCCCCO)c1 [Example 68, 6-(3-(3-Aminopropyl)phenyl)hex-5-yn-1-ol]
≤ 10 | N#Cc1cccc(C#Cc2cccc(CCCN)c2)c1 [Example 90, 3-((3-(3-Aminopropyl)phenyl)ethynyl)benzonitrile]
≤ 1 | CC(C)C(C)(O)C#Cc1cccc(CCCN)c1 (centres unmarked) [Example 21, 1-(3-(3-Aminopropyl)phenyl)-3,4-dimethylpent-1-yn-3-ol]
≤ 10 | COCC#Cc1cccc(CCCN)c1 [Example 9, 3-(3-(3-Methoxyprop-1-ynyl)phenyl)propan-1-amine]
≤ 1 | CCCC(C)(O)C#Cc1cccc(CCCN)c1 (centres unmarked) [Example 5, 1-(3-(3-Aminopropyl)phenyl)-3-methylhex-1-yn-3-ol]
≤ 1 | NCCCc1cccc(C#CC2(O)CCCCCC2)c1 [Example 58, 1-((3-(3-Aminopropyl)phenyl)ethynyl)cycloheptanol]
≤ 1 | CCCC(O)(C#Cc1cccc(CCN)c1)CCC [Example 141, 4-((3-(2-Aminoethyl)phenyl)ethynyl)heptan-4-ol]
≤ 1 | NCCCc1cccc(C#CCC2CCCC2)c1 [Example 39, 3-(3-(3-Cyclopentylprop-1-ynyl)phenyl)propan-1-amine]
≤ 100 | NCCCc1cccc(C#Cc2cccc3ccccc23)c1 [Example 82, 3-(3-(Naphthalen-1-ylethynyl)phenyl)propan-1-amine]
≤ 100 | NCCCc1cccc(C#Cc2cccc(-c3ccccc3)c2)c1 [Example 46, 3-(3-(Biphenyl-3-ylethynyl)phenyl)propan-1-amine]
≤ 1 | CCCCCC#Cc1cccc(C(O)CCN)c1 (centres unmarked) [Example 53, 3-Amino-1-(3-(hept-1-ynyl)phenyl)propan-1-ol]
≤ 10 | CC(C)CC(O)(C#Cc1cccc(CCCN)c1)CC(C)C [Example 33, 4-((3-(3-Aminopropyl)phenyl)ethynyl)-2,6-dimethylheptan-4-ol]
≤ 10 | NCCCc1cccc(C#Cc2cccnc2)c1 [Example 64, 3-(3-(Pyridin-3-ylethynyl)phenyl)propan-1-amine]
≤ 10 | CCCCC[C@H](O)C#Cc1cccc(CCCN)c1 [Example 14, (S)-1-(3-(3-Aminopropyl)phenyl)oct-1-yn-3-ol]
≤ 1 | NCCC(O)c1cccc(C#CCC2CCCC2)c1 (centres unmarked) [Example 48, 3-Amino-1-(3-(3-cyclopentylprop-1-ynyl)phenyl)propan-1-ol]
≤ 100 | NCCCc1cccc(C#CCCO)c1 [Example 34, 4-(3-(3-Aminopropyl)Phenyl)But-3-Yn-1-ol]
≤ 1 | CC(C)CC(C)(O)C#Cc1cccc(CCCN)c1 (centres unmarked) [Example 6, 1-(3-(3-Aminopropyl)phenyl)-3,5-dimethylhex-1-yn-3-ol]

IC50 [µM] | SMILES
≤ 1 | COCCCCC#Cc1cccc(CCCN)c1 [Example 67, 3-(3-(6-Methoxyhex-1-ynyl)phenyl)propan-1-amine]
≤ 100 | CCCC(O)(C#Cc1cccc(CC(C)(C)CN)c1)CCC [Example 20, 4-((3-(3-Amino-2,2-dimethylpropyl)phenyl)ethynyl)heptan-4-ol]
≤ 1 | NCCOc1cccc(C#CCc2ccccc2)c1 [Example 75, 2-(3-(3-phenylprop-1-ynyl)phenoxy)ethanamine]
≤ 1 | NCCCc1cccc(C#C[C@H](O)c2ccccc2)c1 [Example 16, (R)-3-(3-(3-Aminopropyl)phenyl)-1-phenylprop-2-ynol]
≤ 10 | NCCCc1cccc(C#Cc2ccsc2)c1 [Example 66, 3-(3-(Thiophen-3-ylethynyl)phenyl)propan-1-amine]
≤ 1 | CCCCC(O)(C#Cc1cccc(OCCN)c1)CCCC [Example 29, 5-((3-(2-Aminoethoxy)phenyl)ethynyl)nonan-5-ol]
≤ 10 | Cc1cccc(C)c1C#Cc1cccc(CCCN)c1 [Example 17, 3-(3-((2,6-dimethylphenyl)ethynyl)phenyl)propan-1-amine]
≤ 1 | NCCOc1cccc(C#CCC2CCCC2)c1 [Example 85, 2-(3-(3-Cyclopentylprop-1-ynyl)phenoxy)ethanamine]
≤ 10 | NCCOc1cccc(C#Cc2ccsc2)c1 [Example 96, 2-(3-(Thiophen-3-ylethynyl)phenoxy)ethanamine]
≤ 1 | CCCC#Cc1cccc(CCCN)c1 [Example 43, 3-(3-(Pent-1-ynyl)phenyl)propan-1-amine]
≤ 1 | NCCC(O)c1cccc(C#CCc2ccccc2)c1 (centres unmarked) [Example 49, 3-Amino-1-(3-(3-phenylprop-1-ynyl)phenyl)propan-1-ol]
≤ 1 | CC(C)C(O)C#Cc1cccc(CCCN)c1 (centres unmarked) [Example 23, 1-(3-(3-Aminopropyl)phenyl)-4-methylpent-1-yn-3-ol]
≤ 1 | CCCCC(O)(C#Cc1cccc(CCCN)c1)CCCC [Example 3, 5-((3-(3-Aminopropyl)phenyl)ethynyl)nonan-5-ol]
≤ 10 | CC(C)(C)C#Cc1cccc(CCCN)c1 [Example 40, 3-(3-(3,3-Dimethylbut-1-Ynyl)Phenyl)Propan-1-Amine]
≤ 1 | CC(C)(O)C#Cc1cccc(OCCN)c1 [Example 30, 4-(3-(2-Aminoethoxy)phenyl)-2-methylbut-3-yn-2-ol]
≤ 10 | CC1(C)CCCC(C)(C)C1(O)C#Cc1cccc(CCCN)c1 [Example 13, 1-((3-(3-Aminopropyl)phenyl)ethynyl)-2,2,6,6-tetramethylcyclohexanol]
≤ 1 | CCCCCC#Cc1cccc(CCCN)c1 [Example 102, 3-(3-(Hept-1-ynyl)phenyl)propan-1-amine]
≤ 10 | NCCOc1cccc(C#Cc2ccncc2)c1 [Example 97, 2-(3-(Pyridin-4-ylethynyl)phenoxy)ethanamine]
≤ 1 | NCCCc1cccc(C#CCc2ccccc2)c1 [Example 42, 3-(3-(3-Phenylprop-1-ynyl)phenyl)propan-1-amine]
≤ 1000 | CC(C)(C)c1cc(C#Cc2cccc(CCCN)c2)cc(C(C)(C)C)c1 [Example 93, 3-(3-((3,5-Di-tert-butylphenyl)ethynyl)phenyl)propan-1-amine]
